Test results from patent US11241434B2, “Compositions and methods for improving cognition in a subject” (Yale University, priority 2013, dated 2022).
pIC50: −log10 of the molar value.

Experiments:
[1] = test system: APPswe/PS1ΔE9 transgenic mice; experiment: Histology of AD transgenic mice (Aβ plaque, PSD-95, SV2A); type: in vivo, mouse; conditions: for synapse density (PSD-95, SV2A) in dentate gyrus: 5 weeks
Source text: FIGS. 10A-10C illustrate the finding that synaptic markers recover after treatment with a Fyn inhibitor. […] FIG. 10A: Representative sections from the labeled groups were stained with anti-PSD-95 antibody and the molecular layer of the dentate gyrus was imaged with a confocal microscope with a 60× objective lens. Scale bar, 3 μm. FIG. 10B: Fractional area of immunoreactive puncta for PSD-95. p<0.05, ANOVA with post-hoc pairwise Tukey comparisons. Mean±SEM, n=5-10 mice per group, two images per mouse. FIG. 10C: Fractional area of immunoreactive puncta for SV2. p<0.05, ANOVA with post-hoc pairwise Fisher's least significant difference (LSD). Mean±SEM, n=5-10 mice per group, two images per mouse.
The animals were familiarized with two objects on the first day of testing, and then observed on the next day with one novel object and one familiar object. The time spent exploring each object was scored by an observed unaware of drug treatment (FIG. 5). WT mice spend more time with the novel object. However, vehicle-treated APPswe/PS1ΔE9 mice spent equal time with both objects, consistent with impaired memory of familiarization on the previous day. […] The tissue from these mice is analyzed histologically, e.g., for Aβ plaque and synaptic markers (which are reduced in the transgenic mice). […] Without wishing to be limited by theory, this finding is consistent with the fact that saracatinib blocks the downstream action of Aβo on neurons, but not the upstream production of Aβ.
Upon analysis of a post-synaptic marker (PSD-95) or a presynaptic marker (SV2A) in the dentate gyrus of the hippocampus, an saracatinib-induced restoration of synapse density was observed. The twelve-month old transgenic mice have lost approximately 30-40% of synapses by the immunohistological measures.

[2] = Dog exposure (Cmax and AUC) with oral dosing; type: in vivo
[3] = test system: PS19 mice; experiment: Morris water maze in P301S Tau (PS19) transgenic mice; type: in vivo, mouse; conditions: 8-month-old PS19 mice, 6 months of treatment, 5 mg/kg/d in diet
Source text: FIGS. 11A-11C illustrate that Fyn kinase inhibition prevents memory deficits in P301S Tau transgenic tice. FIG. 11A: Timeline of PS19 mouse treatment. FIG. 11B: Morris water maze probe trial for 8-month-old PS19 or WT mice after 6 months of AZD0530 or Vehicle treatment. Twenty four hours after the reverse learning trials in the Morris water maze, the submerged platform was removed and the fraction of 60 sec spent in the target quadrant where the hidden platform had been located previously was recorded. n=11-15/group, each dot is one mouse. Data are mean±SEM. Dashed line indicates random chance performance. […] Latency was measured as the time for the mouse to cross to the opaque box. n=16-18/group. […]
To generate chow containing chow for chronic dosing, the compound was incorporated into purified diet pellets by Research Diets, Inc. by dissolving the compound in a solution of 0.5% w/v Hydroxypropylmethylcellulose/0.1% w/v polysorbate 80 at 1.429 mg/ml. […] The dosage of the drug in the food was calculated to take into account the average amount of food eaten by a mouse in a single day per kg of weight and adjusted to be equivalent to ingesting 5 mg/kg per day.
The Morris water maze paradigm was performed as previously described (Kaufman et al., 2015, Ann Neurol 77:953-971). […] Latency was measured as the time that it took for the mouse to find and spend 1 second on the hidden platform. […]

[4] = test system: PS19 mice; experiment: Passive avoidance test in PS19 mice; type: in vivo, mouse; conditions: 8-month-old PS19 mice, 6 months of treatment
Source text: FIGS. 11A-11C illustrate that Fyn kinase inhibition prevents memory deficits in P301S Tau transgenic tice. FIG. 11A: Timeline of PS19 mouse treatment. FIG. 11B: Morris water maze probe trial for 8-month-old PS19 or WT mice after 6 months of AZD0530 or Vehicle treatment. Twenty four hours after the reverse learning trials in the Morris water maze, the submerged platform was removed and the fraction of 60 sec spent in the target quadrant where the hidden platform had been located previously was recorded. n=11-15/group, each dot is one mouse. Data are mean±SEM. Dashed line indicates random chance performance. Two-way ANOVA reveal an interaction between genotype and treatment (p=0.014). *p<0.05; Sidak's post-hoc multiple comparisons test. FIG. 11C: Passive avoidance test for 8-month-old PS19 and WT mice after 6 months of treatment with AZD0530 or Vehicle. Latency was measured as the time for the mouse to cross to the opaque box. n=16-18/group. Wilcoxon match-pairs signed test; (WT, Vehicle: p=0.0007; WT, AZD0530: p<0.0001; […]; PS19, AZD0530: p=0.0126.)
A Passive Avoidance Controller CAT 7551 was used to conduct the passive avoidance test as previously described (Gimbel et al., 2010, J Neurosci 30:6367-6374) with slight modifications. The door delay was set to 90 seconds, and the shock intensity was set to 0.5 mA with a shock duration of 2 seconds. […]

[5] = test system: Src, Fyn, Yes and Lyn; conditions: blocking Src, read-out: potency; cited from earlier work

Structure (SMILES): CN1CCN(CCOc2cc(OC3CCOCC3)c3c(Nc4c(Cl)ccc5c4OCO5)ncnc3c2)CC1 [saracatinib, N-(5-chloro-benzo[d][1,3]dioxol-4-yl)-7-(2-(4-methylpiperazin-1-yl)ethoxy)-5-(tetrahydro-2H-pyran-4-yloxy)quinazolin-4-amine]
- Aβ plaque content ([1]; APPswe/PS1ΔE9 mice): No significant changes
- synapse density (PSD-95, SV2A) in dentate gyrus ([1]; APPswe/PS1ΔE9 mice): restored to WT control levels
- synapse density (PSD-95, SV2A) in dentate gyrus ([1]; WT mice): no change
- human daily dose equivalent ([2]; dog 2 mg/kg/d): 50 mg
- human dose of equivalent exposure (Cmax and AUC) ([2]; dog 5 mg/kg, saracatinib free base in human): 125 mg
- dose dependence of exposure ([2]; dog, multiple dosing, 0.5 to 5 mg/kg oral daily dose): linear
- probe trial after reverse learning, time in target quadrant [3]: significantly improved the memory deficit
- passive avoidance at 24 hours [4]: exhibited passive avoidance
- pIC50 [5]: 8.00 to 8.70
